Columns and labels:
Assay in all cases: relative viability (nuclei count vs DMSO), 5 days (fraction); higher = more cells survive
Midostaurin + Bortezomib = compound: CO[C@@H]1[C@H](N(C)C(=O)c2ccccc2)C[C@H]2O[C@]1(C)n1c3ccccc3c3c4c(c5c6ccccc6n2c5c31)C(=O)NC4 [Midostaurin] + CC(C)C[C@H](NC(=O)[C@H](Cc1ccccc1)NC(=O)c1cnccn1)B(O)O [Bortezomib] (partner 0.002 µM)
Outline: (§1)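 Each reported value is a median over duplicate plates. It expresses relative viability: treated-well nuclei count divided by vehicle-well nuclei count. Lung cancer cell lines in 1536-well plates were dosed by pin tool a day after seeding, alone with one drug or with a fixed anchor-drug dose plus five library-drug doses (not always all listed) in √10 steps, and nuclei were counted after 5 days.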

Midostaurin + Luminespib = compound: CO[C@@H]1[C@H](N(C)C(=O)c2ccccc2)C[C@H]2O[C@]1(C)n1c3ccccc3c3c4c(c5c6ccccc6n2c5c31)C(=O)NC4 [Midostaurin] + CCNC(=O)c1noc(-c2cc(C(C)C)c(O)cc2O)c1-c1ccc(CN2CCOCC2)cc1 [Luminespib] (partner 0.01 µM)
Outline: as §1

[1] = compound: COc1cc(-c2nn([C@H]3CC[C@H](N4CCN(C(C)=O)CC4)CC3)c3ncnc(N)c23)ccc1NC(=O)c1cc2ccccc2n1C + COc1cc2c(Oc3ccc(NC(=O)C4(C(=O)Nc5ccc(F)cc5)CC4)cc3F)ccnc2cc1OCCCN1CCOCC1 [Foretinib] (partner 0.25 µM)
Outline: as §1

[2] = compound: COc1cc(-c2nn([C@H]3CC[C@H](N4CCN(C(C)=O)CC4)CC3)c3ncnc(N)c23)ccc1NC(=O)c1cc2ccccc2n1C + CS(=O)(=O)N1CCN(Cc2cc3nc(-c4cccc5[nH]ncc45)nc(N4CCOCC4)c3s2)CC1 [Pictilisib] (partner 1 µM)
Outline: as §1

[3] = compound: COc1cc(-c2nn([C@H]3CC[C@H](N4CCN(C(C)=O)CC4)CC3)c3ncnc(N)c23)ccc1NC(=O)c1cc2ccccc2n1C + NC(=O)Nc1cc(-c2cccc(F)c2)sc1C(=O)N[C@H]1CCCNC1 [AZD7762] (partner 0.2 µM)
Outline: as §1

| Cell Line | relative viability (Midostaurin + Bortezomib; first compound 0.01 µM) | relative viability (Midostaurin + Bortezomib; first compound 0.03162 µM) | relative viability (Midostaurin + Bortezomib; first compound 0.1 µM) | relative viability (Midostaurin + Bortezomib; first compound 0.3162 µM) | relative viability (Midostaurin + Luminespib; first compound 0.01 µM) | relative viability (Midostaurin + Luminespib; first compound 0.03162 µM) | relative viability (Midostaurin + Luminespib; first compound 0.1 µM) | relative viability (Midostaurin + Luminespib; first compound 0.3162 µM) | relative viability ([1]; first compound 0.0128 µM) | relative viability ([1]; first compound 0.04048 µM) | relative viability ([1]; first compound 0.128 µM) | relative viability ([1]; first compound 1.28 µM) | relative viability ([2]; first compound 0.0128 µM) | relative viability ([2]; first compound 0.04048 µM) | relative viability ([2]; first compound 0.128 µM) | relative viability ([2]; first compound 1.28 µM) | relative viability ([3]; first compound 0.0128 µM) | relative viability ([3]; first compound 0.04048 µM) | relative viability ([3]; first compound 0.128 µM) | relative viability ([3]; first compound 1.28 µM) |
| --- | --- | --- | --- | --- | --- | --- | --- | --- | --- | --- | --- | --- | --- | --- | --- | --- | --- | --- | --- | --- |
| H3255 | 0.857 | 0.832 | 0.731 | 0.789 | 1.14 | 0.848 | 0.779 | 0.848 | 0.761 | 0.813 | 0.849 | 0.557 | 0.523 | 0.408 | 0.49 | 0.278 | 0.879 | 0.87 | 0.894 | 0.633 |
| NCI-H1437 | 0.556 | 0.499 | 0.478 | 0.545 | 1.02 | 1 | 1.03 | 1.1 | 1.34 | 1.31 | 1.29 | 1.29 | 0.413 | 0.514 | 0.406 | 0.314 | 1.14 | 1.15 | 1.04 | 0.96 |
| LU99A | 1.08 | 1.17 | 1.1 | 0.998 | 0.268 | 0.221 | 0.228 | 0.291 | 0.96 | 0.895 | 0.857 | 0.821 | 0.357 | 0.385 | 0.391 | 0.326 | 0.327 | 0.404 | 0.352 | 0.35 |
| HCC-827 | 0.984 | 0.951 | 0.992 | 1.07 | 0.51 | 0.644 | 0.709 | 0.813 | 0.998 | 0.943 | 1.02 | 0.756 | 1.1 | 1.22 | 0.902 | 0.783 | 0.211 | 0.212 | 0.199 | 0.138 |
| BEN | 0.797 | 0.841 | 0.909 | 1.09 | 0.541 | 1.23 | 0.396 | 0.457 | 0.502 | 0.642 | 0.602 | 0.45 | 0.559 | 0.54 | 0.58 | 0.432 | 0.532 | 0.729 | 0.591 | 0.671 |
| NCI-H23 | 1.03 | 0.999 | 0.923 | 1.06 | 0.263 | 0.251 | 0.227 | 0.197 | 1.22 | 1.03 | 0.797 | 0.651 | 0.36 | 0.298 | 0.403 | 0.457 | 0.268 | 0.199 | 0.261 | 0.199 |
| 201T | 1.08 | 1.04 | 1.05 | 1.13 | 1.02 | 0.98 | 0.997 | 1.06 | 1.06 | 1.19 | 0.859 | 0.594 | 0.729 | 0.639 | 0.571 | 0.432 | 0.707 | 0.51 | 0.584 | 0.465 |
| NCI-H460 | 1.19 | 1.19 | 1.01 | 1.1 | 0.0367 | 0.0356 | 0.0302 | 0.0369 | 1 | 1.13 | 0.916 | 0.975 | 0.164 | 0.314 | 0.345 | 0.368 | 0.618 | 0.73 | 0.603 | 0.579 |
| HCC-15 | 1.04 | 0.946 | 0.999 | 1.08 | 0.305 | 0.38 | 0.308 | 0.165 | 1.13 | 1.09 | 0.94 | 0.877 | 0.854 | 0.369 | 0.657 | 0.647 | 1.46 | 1.24 | 1.21 | 1.28 |
| ABC-1 | 0.316 | 0.289 | 0.285 | 0.292 |  | 0.571 | 0.641 | 0.591 | 0.967 | 0.953 | 1.05 | 0.881 | 0.805 | 0.648 | 0.613 | 0.631 | 0.658 | 0.759 | 0.697 | 0.728 |
| LCLC-103H | 1.07 | 0.924 | 1.02 | 1.1 | 0.906 | 0.875 | 0.847 | 0.674 | 0.774 | 0.972 | 0.616 | 0.65 | 0.656 | 0.691 | 0.571 | 0.49 | 0.828 | 0.787 | 0.759 | 0.703 |
| NCI-H441 | 0.477 | 0.647 | 0.392 | 0.442 | 0.379 | 0.358 | 0.429 | 0.351 | 1.09 | 1.29 | 0.998 | 0.89 | 0.551 | 0.43 | 0.602 | 0.421 | 1.21 | 1.01 | 1.12 | 0.717 |
| EPLC-272H | 0.921 | 0.927 | 1.05 | 1.11 | 0.323 |  | 0.333 | 0.48 | 0.78 |  | 0.705 | 0.37 | 0.369 | 0.258 | 0.29 | 0.311 | 0.253 | 0.207 | 0.215 | 0.142 |

From the supplement of paper PMC10307832
